Test results: patent US5646014A, “Peptide, antibacterial agent, peptide gene, recombinant DNA and method for preparing the peptide” (Agriculture, Forestry and Fisheries Technical Information …, priority 1994, dated 1997)

Tests used:
Type in all cases: cell-based
Escherichia coli JM109 [1] = assay: Minimum inhibitory concentration (M.I.C.), liquid medium; details: BHI medium, 30° C. for 20 hours
Protocol: (§1) In order to examine the antibacterial activity of the moricin obtained in Example 1 against various bacteria, the mimimum inhibitory concentration (M.I.C.) of moricin was measured based on the method described in Eur. J. Biochem., 187:381-386 (1990).
(§2) When E. coli and Staphylococcus aureus subsp. aureus were used as test bacteria, brain heart infusion medium (BHI medium, Difco) was used. When Bacillus cereus was used as a test bacterium, nutrient broth medium (NB medium, Difco) was used.
(§3) To a test medium suspending a test bacterium at a concentration of 4×10^4 cells/ml, an equal volume of the same medium containing moricin at varied concentrations was added and incubated at 30° C. for 20 hours. After the incubation, an equal volume of 6% formalin was added thereto to give a two-fold dilution. Then, the degree of cell proliferation was examined by measuring the absorbance at 650 nm. As a control, cecropin B1 [Comp. Biochem. Physiol. 95B:551 (1990)] was used which is a known antibacterial peptide derived from silkworm.

[2] = tested on: Staphylococcus aureus subsp. aureus ATCC 6538P; assay: as above; details: BHI medium, 30° C. for 20 hours
Protocol: as §1, §2, §3

Bacillus cereus IF03457 [3] = assay: as above; details: NB medium, 30° C. for 20 hours
Protocol: as §1, §2, §3

[4] = tested on: Streptococcus pyogenes ATCC21547; assay: Growth inhibition zone on agarose plate (Test Example 2); details: 2 μl of 50 μM solution per well, BHI plate, no sodium chloride, 2.0 mm = no zone
Protocol: (§4) The antibacterial activity of the moricin obtained in Example 1 against various bacteria was examined based on the method described in Nature, 292:246 (1981).
When Streptococcus pyogenes was used as a test bacterium, 0.8% agarose-containing BHI plate medium was used.
(§5) 50 μM moricin solution was prepared. 2 μl of this solution was added to each well of a plate medium into which a test bacterium had been inoculated. The plate was incubated at 30° C. overnight and then diameters of the growth inhibition zones formed were measured. As a control, cecropin B1 was used. Incidentally, the diameter of the well was 2.0 mm.

[5] = tested on: Staphylococcus xylosus IAM1312; assay: as above; details: 2 μl of 50 μM solution per well, NB plate, no sodium chloride, 2.0 mm = no zone
Protocol: as §4
(§6) NB plate medium containing 0.8% agarose (optionally, sodium chloride was added thereto to give a concentration of 150 mM) was used.
as §5

[6] = tested on: Staphylococcus aureus IF03083; assay: as above; details: 2 μl of 50 μM solution per well, NB plate, no sodium chloride, 2.0 mm = no zone
Protocol: as §4, §6, §5

[7] = tested on: Bacillus megaterium IAM1030; assay: as above; details: 2 μl of 50 μM solution per well, NB plate, no sodium chloride, 2.0 mm = no zone
Protocol: as §4, §6, §5

Escherichia coli JM109 [8] = assay: as above; details: 2 μl of 50 μM solution per well, NB plate, no sodium chloride, well 2.0 mm, 2.0 mm = no zone
Protocol: as §4, §6, §5

[9] = tested on: Pseudomonas aeruginosa IAM1514; assay: as above; details: 2 μl of 50 μM solution per well, NB plate, no sodium chloride, 2.0 mm = no zone
Protocol: as §4, §6, §5

[10] = tested on: Bacillus subtilis IAM1107; assay: as above; details: 2 μl of 50 μM solution per well, NB plate, no sodium chloride, 2.0 mm = no zone
Protocol: as §4, §6, §5

[11] = tested on: Staphylococcus epidermidis IF012993; assay: as above; details: 2 μl of 50 μM solution per well, NB plate, no sodium chloride, 2.0 mm = no zone
Protocol: as §4, §6, §5

[12] = tested on: Pseudomonas fluorescens IAM1179; assay: as above; details: 2 μl of 50 μM solution per well, NB plate, no sodium chloride, 2.0 mm = no zone
Protocol: as §4, §6, §5

[13] = tested on: Staphylococcus aureus ATCC6538P; assay: as above; details: 2 μl of 50 μM solution per well, 2.0 mm = no zone
Protocol: as §4, §6, §5

Bacillus cereus IF03457 [14] = assay: as above; details: 2 μl of 50 μM solution per well, NB plate, no sodium chloride, 2.0 mm = no zone
Protocol: as §4, §6, §5

Cecropin B1: known antibacterial peptide derived from silkworm, used as a control (RWKIFKKIEKMGRNIRDGIVKAGPAIEVLGSAKAI; UniProt P04142 27-61, looked up)
M.I.C. (Escherichia coli JM109 [1]): < 1 µg/mL | M.I.C. [2]: > 16 µg/mL | M.I.C. (Bacillus cereus IF03457 [3]): > 16 µg/mL | Diameter of the Inhibition Zone [4]: 2.0 mm | Diameter of the Inhibition Zone [5]: 2.0 mm | Diameter of the Inhibition Zone [6]: 2.0 mm | Diameter of the Inhibition Zone [7]: 10.9 mm | Diameter of the Inhibition Zone (Escherichia coli JM109 [8]): 10.1 mm | Diameter of the Inhibition Zone [9]: 7.9 mm | Diameter of the Inhibition Zone [10]: 7.8 mm | Diameter of the Inhibition Zone [11]: 9.0 mm | Diameter of the Inhibition Zone [12]: 8.9 mm | Diameter of the Inhibition Zone ([13]; NB plate with 150 mM sodium chloride): 2.3 mm | Diameter of the Inhibition Zone ([13]; NB plate, no sodium chloride): 6.9 mm | Diameter of the Inhibition Zone (Bacillus cereus IF03457 [14]): 2.0 mm
